From EP2077855B1, “THERAPEUTIC USE OF GBA2” (Yildiz, Dr. med., Yildiz, priority 2006, dated 2008)
Values joined by “and” are separate entries in the source; they are usually repeats but may differ in a detail not shown here. Equal values may be shown once. Each block holds one molecule with its values, some of them ahead of it.

How the values were obtained:
[1] = target: T1, human liver microsomal GBA2 activity (Homo sapiens, UniProt Q9HCG7); test: Glucosidase activity of human liver microsomes upon addition of test compounds; type: biochemical; parameters: enzyme activity: unit not given here; settings: human liver microsomes diluted 1:8 with Chaps, incubation time 15; for mean value: mean counts
T1 construct: from tissue; host or cells: human liver microsomes
T1 sequence (Q9HCG7 1-927): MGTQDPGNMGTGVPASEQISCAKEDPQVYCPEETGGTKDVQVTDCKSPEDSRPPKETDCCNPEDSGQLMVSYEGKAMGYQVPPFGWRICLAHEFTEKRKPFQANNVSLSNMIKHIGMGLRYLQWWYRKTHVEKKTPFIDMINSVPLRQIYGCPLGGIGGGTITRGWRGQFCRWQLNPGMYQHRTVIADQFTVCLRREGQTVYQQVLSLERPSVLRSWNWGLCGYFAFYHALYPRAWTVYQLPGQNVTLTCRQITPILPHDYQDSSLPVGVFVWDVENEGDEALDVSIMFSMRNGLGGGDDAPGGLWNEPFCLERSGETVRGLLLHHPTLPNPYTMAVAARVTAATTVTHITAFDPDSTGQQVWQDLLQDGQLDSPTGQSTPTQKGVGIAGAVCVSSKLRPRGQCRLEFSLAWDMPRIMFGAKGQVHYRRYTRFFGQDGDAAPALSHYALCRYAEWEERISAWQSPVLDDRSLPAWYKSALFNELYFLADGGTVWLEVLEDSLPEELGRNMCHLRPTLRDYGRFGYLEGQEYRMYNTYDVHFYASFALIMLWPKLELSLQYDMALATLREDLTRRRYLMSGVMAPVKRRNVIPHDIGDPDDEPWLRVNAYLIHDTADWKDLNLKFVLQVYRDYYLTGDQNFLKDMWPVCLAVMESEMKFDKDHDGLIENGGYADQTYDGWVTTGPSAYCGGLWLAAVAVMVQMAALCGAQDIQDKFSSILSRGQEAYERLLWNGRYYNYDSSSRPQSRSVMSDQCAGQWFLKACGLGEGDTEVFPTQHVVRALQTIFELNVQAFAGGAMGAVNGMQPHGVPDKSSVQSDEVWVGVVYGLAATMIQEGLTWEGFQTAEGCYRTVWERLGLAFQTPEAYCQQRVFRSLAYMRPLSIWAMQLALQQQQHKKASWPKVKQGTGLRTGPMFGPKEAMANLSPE
Experimental: (§1) Following the method for measurement of glucosidase activity described in ((Matern, H. et al., J. Biol. Chem. 272:11,261-11,267 (1997), the effect of several test compounds (like bivalent cations and detergents) on the glucosidase activity of recombinant GBA2 produced in insect cells (His-tagged isolated enzyme) and of human liver microsomes was compared. The glucosidase activity of human liver was tested in a microsomal preparation. The tested compounds were: cations including nickel, zinc, cobalt, manganese, calcium, magnesium and barium; detergents including Chaps, Triton X100, taurocholate, Brij58; and phospholipids including lyso-phosphatidylcholine, sphingomyelin, phosphatidylcholine, phosphatidyl-serine, phosphatidylethanolamine and phosphatidylinositol. The enzyme activity results for the recombinant GBA2 were similar or even better than the results for human liver microsomal GBA2 activity. Representative results are summarized in Table 5; the data for the remaining test compounds is not shown. Result: Expression of GBA2 in insect cells leads to recombinant GBA2 whose glucosidase activity is similar to or even higher than the glucosidase activity of human liver microsomes. Table 5: Glucosidase activity of microsomal human liver and GBA2 from insect cells upon addition of sphingomyelin (A, B) and cobalt (C, D). The microsomal preparations were diluted 1:8 with Chaps before use. Measurements were performed in duplicate or triplicate.

[2] = target: T2, recombinant GBA2 produced in insect cells (His-tagged isolated enzyme) (Homo sapiens, UniProt Q9HCG7); test: Glucosidase activity of recombinant GBA2 produced in insect cells upon addition of test compounds; type: biochemical; parameters: enzyme activity: unit not given here; settings: insect cell produced recombinant GBA2, incubation time 15; for mean value: mean counts
T2 construct: His tag; made in house; host or cells: insect cells
T2 sequence (Q9HCG7 1-927): T1 sequence (Q9HCG7 1-927)
Experimental: as §1

Molecule: [Co+2] [cobalt]
% of control ([1]; cobalt 0,01mM): 87% | counts ([1]; cobalt 0,01mM): 180,77 and 193,04 and 191,08 | enzyme activity ([1]; cobalt 0,01mM): 1,0961 | % of control ([1]; cobalt 0,05mM): 140% | counts ([1]; cobalt 0,05mM): 223,91 and 223,75 and 225,71 | enzyme activity ([1]; cobalt 0,05mM): 1,7647 | % of control ([1]; cobalt 0,001mM): 81% | enzyme activity ([1]; cobalt 0,001mM): 1,0240 | % of control ([1]; cobalt 1mM): 155% | counts ([1]; cobalt 1mM): 234,69 and 233,72 and 236,26 | enzyme activity ([1]; cobalt 1mM): 1,9576 | % of control ([1]; cobalt 0,005mM): 84% | counts ([1]; cobalt 0,005mM): 192,98 and 191,68 and 174,52 | enzyme activity ([1]; cobalt 0,005mM): 1,0610 | % of control ([1]; cobalt 5mM): 163% | counts ([1]; cobalt 5mM): 233,59 and 235,10 and 251,13 | enzyme activity ([1]; cobalt 5mM): 2,0510 | mean value ([1]; cobalt 0,01mM): 188,30 | mean value ([1]; cobalt 0,05mM): 224,46 | mean value ([1]; cobalt 0,001mM): 84,391 | mean value ([1]; cobalt 1mM): 234,89 | mean value ([1]; cobalt 0,005mM): 186,39 | mean value ([1]; cobalt 5mM): 239,941 | % of control ([2]; cobalt 0,01mM): 93% | counts ([2]; cobalt 0,01mM): 157,63 and 157,78 | enzyme activity ([2]; cobalt 0,01mM): 0,1288 | % of control ([2]; cobalt 0,1mM): 115% | counts ([2]; cobalt 0,1mM): 161,62 and 167,45 | enzyme activity ([2]; cobalt 0,1mM): 0,1604 | % of control ([2]; cobalt 0,05mM): 117% | counts ([2]; cobalt 0,05mM): 167,53 and 152,62 and 174,62 | enzyme activity ([2]; cobalt 0,05mM): 0,1622 | % of control ([2]; cobalt 0,5mM): 273% | counts ([2]; cobalt 0,5mM): 206,30 and 217,85 | enzyme activity ([2]; cobalt 0,5mM): 0,3802 | % of control ([2]; cobalt 1mM): 360% | counts ([2]; cobalt 1mM): 237,74 and 260,51 and 216,07 | enzyme activity ([2]; cobalt 1mM): 0,5005 | % of control ([2]; cobalt 5mM): 97% | counts ([2]; cobalt 5mM): 208,68 and 319,94 | enzyme activity ([2]; cobalt 5mM): 0,6216 | mean value ([2]; cobalt 0,01mM): 157,71 | mean value ([2]; cobalt 0,1mM): 164,54 | mean value ([2]; cobalt 0,05mM): 164,92 | mean value ([2]; cobalt 0,5mM): 212,08 | mean value ([2]; cobalt 1mM): 238,11 | mean value ([2]; cobalt 5mM): 264,31

mean value ([1]; sphingomyelin 0,3mM): 195,30 | mean value ([1]; sphingomyelin 0,15mM): 206,72 | mean value ([1]; sphingomyelin 0,75mM): 206,21 | mean value ([1]; sphingomyelin 3mM): 214,01 | mean value ([1]; sphingomyelin 6mM): 208,40 | mean value ([1]; sphingomyelin 12mM): 195,24 | mean value ([1]; sphingomyelin 1,5mM): 201,66 | % of control ([1]; sphingomyelin 0,3mM): 68% | counts ([1]; sphingomyelin 0,3mM): 187,68 and 202,92 | enzyme activity ([1]; sphingomyelin 0,3mM): 1,4089 | % of control ([1]; sphingomyelin 0,15mM): 78% | counts ([1]; sphingomyelin 0,15mM): 215,51 and 197,93 | enzyme activity ([1]; sphingomyelin 0,15mM): 1,6200 | % of control ([1]; sphingomyelin 0,75mM): 78% | counts ([1]; sphingomyelin 0,75mM): 206,90 and 205,52 | enzyme activity ([1]; sphingomyelin 0,75mM): 1,6106 | % of control ([1]; sphingomyelin 3mM): 85% | counts ([1]; sphingomyelin 3mM): 225,57 and 202,45 | enzyme activity ([1]; sphingomyelin 3mM): 1,7548 | % of control ([1]; sphingomyelin 6mM): 80% | counts ([1]; sphingomyelin 6mM): 207,54 and 209,26 | enzyme activity ([1]; sphingomyelin 6mM): 1,6511 | % of control ([1]; sphingomyelin 12mM): 68% | counts ([1]; sphingomyelin 12mM): 189,25 and 201,23 | enzyme activity ([1]; sphingomyelin 12mM): 1,4077 | % of control ([1]; sphingomyelin 1,5mM): 74% | counts ([1]; sphingomyelin 1,5mM): 207,84 and 195,48 | enzyme activity ([1]; sphingomyelin 1,5mM): 1,5264 | mean value ([2]; sphingomyelin 0,3mM): 674,56 | mean value ([2]; sphingomyelin 0,15mM): 591,95 | mean value ([2]; sphingomyelin 0,75mM): 537,54 | mean value ([2]; sphingomyelin 3mM): 652,37 | mean value ([2]; sphingomyelin 6mM): 493,49 | mean value ([2]; sphingomyelin 12mM): 510,93 | mean value ([2]; sphingomyelin 1,5mM): 643,44 | % of control ([2]; sphingomyelin 0,3mM): 104% | counts ([2]; sphingomyelin 0,3mM): 675,57 and 673,54 | enzyme activity ([2]; sphingomyelin 0,3mM): 2,5788 | % of control ([2]; sphingomyelin 0,15mM): 89% | counts ([2]; sphingomyelin 0,15mM): 579,66 and 604,24 | enzyme activity ([2]; sphingomyelin 0,15mM): 2,1969 | % of control ([2]; sphingomyelin 0,75mM): 79% | counts ([2]; sphingomyelin 0,75mM): 541,76 and 533,32 | enzyme activity ([2]; sphingomyelin 0,75mM): 1,9454 | % of control ([2]; sphingomyelin 3mM): 100% | counts ([2]; sphingomyelin 3mM): 699,42 and 605,31 | enzyme activity ([2]; sphingomyelin 3mM): 2,4762 | % of control ([2]; sphingomyelin 6mM): 70% | counts ([2]; sphingomyelin 6mM): 473,49 and 513,48 | enzyme activity ([2]; sphingomyelin 6mM): 1,7418 | % of control ([2]; sphingomyelin 12mM): 74% | counts ([2]; sphingomyelin 12mM): 489,65 and 532,21 | enzyme activity ([2]; sphingomyelin 12mM): 1,8224 | % of control ([2]; sphingomyelin 1,5mM): 98% | counts ([2]; sphingomyelin 1,5mM): 630,13 and 656,75 | enzyme activity ([2]; sphingomyelin 1,5mM): 2,4349
Molecule: sphingomyelin
